Paper PMC9569529, “Safe and Efficient Sigma1 Ligand: A Potential Drug Candidate for Multiple Sclerosis” (International Journal of Molecular Sciences, 2022)
“And” between values parts separate entries of the source, which are not always exact repeats. Equal entries are not always repeated. Where two headings read alike, the source gives them in different places.

Legend:
S. typhimurium TA102 = details: Salmonella typhimurium
Caco-2 cell line = assay: Bidirectional permeability in Caco-2 (pH 6.5/7.4); type: in vitro ADME, human; details: Papp(B-A)/Papp(A-B), pH 6.5/7.4
Description: The compound was classically evaluated at 10 µM for all the ADME analyses. Bidirectional permeability (apical A to basolateral B pH 6.5/7.4 and basolateral B to apical A pH 7.4/6.5) was assessed in the epithelial colorectal adenocarcinoma cell line (Caco-2 cell line). Results were expressed as × 10^−6cm/s (Papp) and as % recovery. Efflux ratio, i.e., Papp(B-A)/Papp(A-B), was calculated. Plasma protein binding was analyzed by HPLC-MS/MS after 4-h incubation at 37 °C, as described by Banker et al.. Concentration was evaluated by LC/MS-MS. CYP inhibition was performed in human liver microsomes as described in [61]. Analysis of the respective metabolites. was performed by HPLC-MS/MS. Transporter inhibition analysis was also performed in overexpressing cell lines. Respective metabolites for each specific transporter substrate were analyzed by fluorometry or scintillation counting and % inhibition of control values were calculated. P-glycoprotein transporter substrate assessment was performed by bidirectional permeability analysis (apical A to basolateral B pH 7.4/7.4 and basolateral B to apical A pH 7.4/7.4) in the Caco-2 cell line with and without verapamil, as described in [59]. Results were expressed as ×10^−6 cm/s (Papp) and as % recovery. The efflux ratio, i.e., Papp(B-A)/Papp(A-B), was calculated. CYP450 induction characterization was performed on human hepatocytes. The mRNA levels of 7 different CYPs were analyzed by qPCR, as described in [72]. The compound was evaluated at 1, 10 and 100 µM. Fold-induction values were determined and compared to cut-off values, as defined for each CYP isozyme in each hepatocyte lot.

[1] = Pharmacokinetic study in plasma and brain; type: in vivo, male C57BL/6 mice; details: 1 mg/kg; for Brain/Plasma / Kp at 0.5 h: at 30 min; for Brain AUC t^∞/AUC ∞: unit assumed; for Kp at 0.5 h / Tmax / half-life / concentration at 30 min / bioavailability: male, C57BL/6, mouse
Description: A pharmacokinetic (PK) study was performed by Eurofins Cerep (Poitiers, France) in male C57BL/6 mice (20–30 g) following i.v. and p.o. administrations of compound 7i at 1 mg/kg.
The plasma and perfused brain samples were collected at 0, 30, 60, 120, 240 and 280 min after treatment administration (n = 3 animal/time point). Animals were terminated under inhalant CO2 euthanasia. Blood was collected via cardiac puncture. Aliquots were collected in tubes coated with lithium heparin and centrifuged. The plasma was harvested and kept frozen at −70 °C until further processing. Immediately following the collection of the blood sample, animals were perfused with heparinized saline (10 IU/mL). The brain was collected, rinsed with saline to remove residual blood, weighed and stored at −70 °C until further analysis.
Plasma samples were processed using acetonitrile precipitation and analyzed by LC-MS/MS. A plasma calibration curve was generated. Aliquots of drug-free plasma were spiked with compound 7i at the specified concentration levels. The spiked plasma samples were processed together with the unknown plasma samples using the same procedure.
Each brain was homogenized for 10 s on ice in a proper volume of cold phosphate-buffered saline (PBS) at pH 7.4. The homogenate was centrifuged at 5400× g for 15 min at 4 °C. Supernatants were subsequently processed using acetonitrile precipitation and analyzed by LC-MS/MS. A brain calibration curve was generated. Aliquots of drug-free brain homogenate were spiked with compound 7i at the specified concentration levels. The spiked brain homogenate samples were processed together with the unknown brain homogenate samples using the same procedure.
Concentrations of compound 7i in the unknown plasma and brain samples were determined using the respective calibration curve. The reportable linear range of the assay was determined, along with the lower limit of quantitation (LLQ).
The exposure levels of compound 7i in the plasma and brain samples as determined by LC-MS/MS were reported (ng/mL). The [brain]/[plasma] ratios were calculated.
Pharmacokinetic modeling was performed using the non-compartmental method based on statistical moments. In this method, exchanges between kinetic spaces are expressed in time. The curves were obtained using R software (Package ggplot2, v3.3.6).

[2] = test system: experimental autoimmune encephalomyelitis (EAE); assay: Relapsing EAE (PLP 139-151), curative protocol; type: in vivo, female SJL/J mice

SMILES: CN(CCCNC(=O)c1ccc(Cl)cc1)Cc1ccccc1 [compound 7i]
- Ames TA102 +S9 (Mean revertants/well per title) (S. typhimurium TA102): 1.0
- Ames TA102 −S9 (Mean revertants/well per title) (S. typhimurium TA102): 0.7
- e-ratio (efflux ratio) (Caco-2 cell line): 2.3
- increase of total clearance, p.o. versus i.v. [1]: 20 times
- C30 after i.v. relative to p.o. ([1]; in the plasma or in the brain): more than 10 times
- CLT ([1]; i.v.): 3.8 mL/min
- CLbrain ([1]; i.v.): 1.8 mL/min
- D (diffusion in the brain) ([1]; i.v.): 62% and 61.7%
- MAT ([1]; i.v.): 0 min
- Plasma AUC t^∞/AUC ∞ ([1]; i.v.): 0.9
- Brain/Plasma ([1]; i.v.): 2.9
- Brain AUC t^∞/AUC ∞ ([1]; i.v., brain): 5.9%
- Plasma Cmax (simulated) ([1]; i.v., mouse plasma, simulated): 180 ng/mL
- Kp at 0.5 h ([1]; brain, iv): 3
- Tmax ([1]; brain, iv, i.v., brain, read-out: Brain tmax): ≤ 30 min
- half-life ([1]; brain, iv, read-out: Brain t1/2 el): 96.4 min
- Kp at 0.5 h ([1]; brain, po): 3
- Tmax ([1]; brain, po, p.o., brain, read-out: Brain tmax): ≤ 30 min
- half-life ([1]; brain, po, read-out: Brain t1/2 el): 78.9 min
- concentration at 30 min ([1]; iv, brain, read-out: Brain C30): 234 ng/mL
- bioavailability ([1]; plasma, iv): 100%
- concentration at 30 min ([1]; plasma, iv, read-out: Plasma C30): 79.8 ng/mL
- Tmax ([1]; plasma, iv, i.v., mouse plasma, read-out: Plasma tmax): 0 min
- half-life ([1]; plasma, iv, read-out: Plasma t1/2 el): 44.5 min
- bioavailability ([1]; plasma, po): 5%
- concentration at 30 min ([1]; plasma, po, read-out: Plasma C30): 6.4 ng/mL
- Tmax ([1]; plasma, po, p.o., mouse plasma, read-out: Plasma tmax): < 30 min
- half-life ([1]; plasma, po, read-out: Plasma t1/2 el): 25.5 min
- concentration at 30 min ([1]; po, brain, read-out: Brain C30): 20.7 ng/mL
- CLT ([1]; p.o.): 74.9 mL/min
- CLbrain ([1]; p.o.): 12.8 mL/min
- MAT ([1]; p.o.): 16.5 min
- Plasma AUC t^∞/AUC ∞ ([1]; p.o.): 6.1
- Vd ([1]; p.o.): 0.168 L/kg
- Brain/Plasma ([1]; p.o.): 3.2
- Brain AUC t^∞/AUC ∞ ([1]; p.o., brain): 7.6%
- EAE global evolution ([2]; 0.5 mg/kg i.p. daily for 15 days from score 2, followed 80 days): significantly reduced
- EAE course ([2]; 0.5 mg/kg p.o. daily for 15 days from score 2): significant decrease
- effect on EAE development after BD-1047 pretreatment ([2]; BD-1047 10 mg/kg i.p. 20 min before 7i): blocked
- second relapse ([2]; i.p., 0.5 and 1 mg/kg daily for 15 days): No second relapse
- effect on clinical score during treatment (first relapse) ([2]; i.p., 0.5 and 1 mg/kg, more pronounced at 1 mg/kg): visible from the first days of treatment
- maximal clinical grade during the entire disease course ([2]; orally treated animals): ≤ 2 grade
- clinical grade reached during the 15 days of administration ([2]; p.o. 0.5 mg/kg): 1 grade
- rebound effect after end of treatment ([2]; p.o., as in i.p. administration): No rebound effect
